The text below walks through data of ChEMBL document CHEMBL3421572, “Synthesis of Schiff base derivatives of 4-(2-aminoethyl)-benzenesulfonamide with inhibitory activity against carbonic anhydrase isoforms I, II, IX and XII” (Bioorg Med Chem Lett, 2015).

Some targets named below: Carbonic anhydrase 9 (Homo sapiens, UniProt Q16790); Carbonic anhydrase 1 (Homo sapiens, UniProt P00915); Carbonic anhydrase 12 (Homo sapiens, UniProt O43570).
Series [1] in a line: Chemical stability of the compound in HEPES buffer assessed as compound remaining at 10 mg at pH 7.4 measured at 0 hr by HPLC method. The class given is physicochemical. The conditions noted are these: read-out: Stability.
Series [2] can be described thus: Chemical stability of the compound in HEPES buffer assessed as compound remaining at 10 mg at pH 7.4 measured at 24 hrs by HPLC method. In kind it is physicochemical. To be noted: read-out: Stability.
Series [3] can be described thus: Chemical stability of the compound in HEPES buffer assessed as compound remaining at 10 mg at pH 7.4 measured at 10 hrs by HPLC method. The class given is physicochemical. The conditions noted are these: read-out: Stability.
Series [4] is described as follows: Chemical stability of the compound in HEPES buffer assessed as compound remaining at 10 mg at pH 7.4 measured at 5 hrs by HPLC method. In kind it is physicochemical. To be noted: read-out: Stability.
Series [5] in a line: Chemical stability of the compound in HEPES buffer assessed as compound remaining at 10 mg at pH 7.4 measured at 3 hrs by HPLC method. To be noted: read-out: Stability. The class given is physicochemical.

Chain of Carbonic anhydrase 12 (O43570 whole entry): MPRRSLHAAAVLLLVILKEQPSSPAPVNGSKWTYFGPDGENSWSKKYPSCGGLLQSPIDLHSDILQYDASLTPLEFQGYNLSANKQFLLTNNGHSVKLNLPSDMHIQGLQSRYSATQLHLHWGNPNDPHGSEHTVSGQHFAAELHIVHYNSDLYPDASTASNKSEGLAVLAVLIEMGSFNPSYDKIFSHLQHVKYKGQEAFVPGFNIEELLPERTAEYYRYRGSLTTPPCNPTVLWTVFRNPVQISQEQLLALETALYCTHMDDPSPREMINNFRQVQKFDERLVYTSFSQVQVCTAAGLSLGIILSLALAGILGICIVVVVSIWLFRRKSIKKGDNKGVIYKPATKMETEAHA
Chain of Carbonic anhydrase 1 (P00915 whole entry): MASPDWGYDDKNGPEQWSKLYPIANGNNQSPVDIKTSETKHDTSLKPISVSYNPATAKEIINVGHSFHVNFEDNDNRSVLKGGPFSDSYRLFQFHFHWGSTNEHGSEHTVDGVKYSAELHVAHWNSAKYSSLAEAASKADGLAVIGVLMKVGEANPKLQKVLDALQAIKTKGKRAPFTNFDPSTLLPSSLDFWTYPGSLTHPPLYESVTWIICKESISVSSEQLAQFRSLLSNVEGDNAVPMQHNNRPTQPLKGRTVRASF
Description for Carbonic anhydrase 12: Inhibition of recombinant human transmembrane, tumor-associated form of carbonic anhydrase-12 preincubated for 15 mins by stopped flow CO2 hydration assay

Broadly, the Ki is the equilibrium dissociation constant of an inhibitor or competing ligand from its target. Low values mean higher affinity, high ones lower affinity. Regarding `NS(=O)(=O)c1ccc(CC/N=C\c2cc(Br)ccc2O)cc1`, the inhibition constant Ki on Carbonic anhydrase 9 came to 187 nM.

On to `NS(=O)(=O)c1ccc(CC/N=C\c2ccccc2O)cc1`, for which the inhibition constant Ki worked out at 138 nM at Carbonic anhydrase 9, 393 nM on Carbonic anhydrase 1 and 46.8 nM on Carbonic anhydrase 12.

Turning to `COc1ccc(/C=N\CCc2ccc(S(N)(=O)=O)cc2)cc1`, the remaining at 0 h in series [1] stood at 100%. Besides, the remaining at 24 h in series [2] is 8%. For the same compound, in series [3], the remaining at 10 h came out at 43%. This compound had a Ki on Carbonic anhydrase 9 of 231 nM. Moreover, the remaining at 5 h in series [4] was found to be 72%. Further, in series [5], the remaining at 3 h came out at 100%.

As for `NS(=O)(=O)c1ccc(CCNCc2ccccc2)cc1`, the remaining at 0 h in series [1] was 100%. In addition, the remaining at 24 h in series [2] turned out to be 100%. Further, the remaining at 10 h in series [3] came out at 100%. Also, the Ki on Carbonic anhydrase 9 turned out to be 4.3 nM; at Carbonic anhydrase 12, 6.3 nM. Further, the remaining at 5 h in series [4] is 100%. Moreover, the remaining at 3 h in series [5] is 100%.

`Cc1cccc(CNCCc2ccc(S(N)(=O)=O)cc2)c1O` yielded a Ki at Carbonic anhydrase 9 of 3.7 nM.

`NS(=O)(=O)c1ccc(CCNCc2cc(Br)cc(Br)c2O)cc1`: affinity on Carbonic anhydrase 9 was put at a Ki of 4.1 nM.

Regarding `Cc1ccc(/C=N\CCc2ccc(S(N)(=O)=O)cc2)cc1`, on Carbonic anhydrase 9, the affinity, expressed as Ki, was 123 nM.

Regarding `COc1ccc(CNCCc2ccc(S(N)(=O)=O)cc2)cc1`, in series [1], the remaining at 0 h came to 100%. Moreover, the remaining at 24 h in series [2] amounted to 100%. The remaining at 10 h in series [3] turned out to be 100%. For the same compound, the figures for the inhibitory constant (Ki) on Carbonic anhydrase 1 and at Carbonic anhydrase 12 were 4.6 nM and 37.7 nM, respectively. Also, the remaining at 5 h in series [4] amounted to 100%. The remaining at 3 h in series [5] amounted to 100%.

On Carbonic anhydrase 9, `NS(=O)(=O)c1ccc(CCNCc2ccccc2O)cc1` came in with a Ki of 3.9 nM.

Regarding `NS(=O)(=O)c1ccc(CCNCc2cc(Cl)ccc2O)cc1`, affinity at Carbonic anhydrase 9 was put at a Ki of 15.6 nM.

Turning to `NS(=O)(=O)c1ccc(CC/N=C\c2cc(Cl)cc(Cl)c2O)cc1`, the Ki on Carbonic anhydrase 9 stood at 190 nM.

Regarding `CCN[C@H]1C[C@H](C)S(=O)(=O)c2sc(S(N)(=O)=O)cc21` [DORZOLAMIDE], on Carbonic anhydrase 12, the affinity corresponds to a Ki of 3 nM.

Compound `NS(=O)(=O)c1ccc(CCNCc2cc(Br)ccc2O)cc1` displayed an inhibition constant (Ki) at Carbonic anhydrase 9 of 4.3 nM.

At Carbonic anhydrase 9, `Cc1cccc(/C=N\CCc2ccc(S(N)(=O)=O)cc2)c1O` showed an inhibition constant Ki of 295 nM.

As for `NS(=O)(=O)c1ccc(CC/N=C\c2cc(Cl)ccc2O)cc1`, the affinity on Carbonic anhydrase 9, expressed as Ki, was 106 nM.

On Carbonic anhydrase 9, `NS(=O)(=O)c1ccc(CC/N=C\c2ccc(OCc3ccccc3)cc2)cc1` gave a Ki of 230 nM.

`NS(=O)(=O)c1ccc(CC/N=C\c2cc(Br)cc(Br)c2O)cc1` gave a Ki on Carbonic anhydrase 9 of 163 nM.

On to `NS(=O)(=O)c1ccc(CCNCc2ccc(OCc3ccccc3)cc2)cc1`, for which the Ki on Carbonic anhydrase 9 came out at 2.9 nM.

As for `CN(C)c1ccc(/C=N\CCc2ccc(S(N)(=O)=O)cc2)cc1`, the Ki on Carbonic anhydrase 9 was determined as 39.1 nM; at Carbonic anhydrase 1 it was 453 nM; on Carbonic anhydrase 12 it was 3120 nM.

Consider `NS(=O)(=O)c1ccc(CC/N=C\c2ccccc2)cc1`, for which, in series [1], the remaining at 0 h is 100%. Besides, the remaining at 24 h in series [2] worked out at 14%. The remaining at 10 h in series [3] was 51%. On Carbonic anhydrase 9, this compound registered a Ki of 220 nM. For the same compound, the remaining at 5 h in series [4] came to 89%. Moreover, in series [5], the remaining at 3 h stood at 100%.

Turning to `Cc1ccc(CNCCc2ccc(S(N)(=O)=O)cc2)cc1`, the Ki at Carbonic anhydrase 9 is 10.2 nM.
